ChEMBL document CHEMBL3621196, “Quinazolinedione SIRT6 inhibitors sensitize cancer cells to chemotherapeutics” (Eur J Med Chem, 2015)
Each block holds one compound with its values, some of them ahead of it. Active and inactive are the calls of the source. The rule behind the calls is not given here.

Tests used:
[1] = target: T1, NAD-dependent protein deacylase sirtuin-6 (Homo sapiens, UniProt Q8N6T7); assay: Inhibition of human recombinant SIRT6 deacetylase activity using Arg-His-Lys-Lys(AC)-AMC as a substrate by […] assay
T1 sequence (Q8N6T7 whole entry): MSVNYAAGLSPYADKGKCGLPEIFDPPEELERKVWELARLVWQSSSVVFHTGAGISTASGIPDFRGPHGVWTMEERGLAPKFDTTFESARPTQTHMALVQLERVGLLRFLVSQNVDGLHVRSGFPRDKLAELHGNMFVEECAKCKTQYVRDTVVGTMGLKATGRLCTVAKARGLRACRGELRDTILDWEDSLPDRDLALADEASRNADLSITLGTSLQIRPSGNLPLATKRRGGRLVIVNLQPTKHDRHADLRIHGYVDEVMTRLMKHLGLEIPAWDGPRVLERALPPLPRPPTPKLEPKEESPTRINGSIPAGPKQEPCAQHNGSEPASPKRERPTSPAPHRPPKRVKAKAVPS

[2] = target: T1, NAD-dependent protein deacylase sirtuin-6; assay: Inhibition of human SIRT6 deacetylase activity using Arg-His-Lys-Lys(AC)-AMC as a substrate by fluorescence assay
CAPAN-1 [3] = assay: Induction of DNA damage in human BRCA2-deficient Capan1 cells assessed as increase in gammaH2AX levels at 8 uM after 24 hrs by confocal microscopy; type: functional, cell-based
CAPAN-1 [4] = assay: Induction of DNA damage in human BRCA2-deficient Capan1 cells assessed as increase in gammaH2AX levels at 8 uM after 24 hrs by flow cytometry analysis; type: functional, cell-based
[5] = target: T1, NAD-dependent protein deacylase sirtuin-6; assay: Competitive inhibition of human recombinant SIRT6 deacetylase activity using NAD+ as a substrate at 50 uM by double-reciprocal plot analysis
[6] = target: T1, NAD-dependent protein deacylase sirtuin-6; assay: Inhibition of human SIRT6 in […] Capan1 cells assessed as potentiation of NU1025-induced cytotoxicity by measuring cell viability at 100 uM after 7 days by CellTiter96 Aqueous1 assay; type: cell-based; conditions: CAPAN-1
CAPAN-1 [7] = assay: Induction of DNA damage in human BRCA2-deficient Capan1 cells assessed as increase in gammaH2AX levels at 100 uM after 24 hrs by flow cytometry analysis; type: functional, cell-based
CAPAN-1 [8] = assay: Induction of DNA damage in human BRCA2-deficient Capan1 cells assessed as increase in gammaH2AX levels at 100 uM after 24 hrs by confocal microscopy; type: functional, cell-based
[9] = target: T1, NAD-dependent protein deacylase sirtuin-6; assay: Inhibition of SIRT6 in human BxPC-3 cells assessed as increase in H3K9 acetylation by immunoblotting assay relative to control; type: cell-based
[10] = target: Protein Sirt6 (Rattus norvegicus) (UniProt A6K863); assay: Inhibition of SIRT6 in rat L6 cells assessed as increase in radiolabelled glucose uptake at 100 uM after 18 hrs by fluorescence plate reader relative to control; type: cell-based
Chain of Protein Sirt6 (Rattus norvegicus) (A6K863 as listed by the source): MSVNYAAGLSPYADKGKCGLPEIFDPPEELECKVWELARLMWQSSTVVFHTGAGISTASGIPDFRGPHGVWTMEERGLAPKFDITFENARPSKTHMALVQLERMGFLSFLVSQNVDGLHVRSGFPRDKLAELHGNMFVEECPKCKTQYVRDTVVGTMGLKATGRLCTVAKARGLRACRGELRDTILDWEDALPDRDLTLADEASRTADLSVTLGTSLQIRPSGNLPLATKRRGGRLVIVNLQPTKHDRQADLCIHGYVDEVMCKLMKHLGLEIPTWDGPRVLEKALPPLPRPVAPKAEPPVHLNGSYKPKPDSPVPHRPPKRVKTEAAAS

[11] = Cytotoxicity against human HEK293 cells assessed as cell viability using propidium iodide by flow cytometry; type: cell-based; conditions: read-out: Activity
[12] = target: T1, NAD-dependent protein deacylase sirtuin-6; assay: Inhibition of SIRT6 in human BxPC3 cells assessed as reduction in TNF alpha production by ELISA; type: cell-based; conditions: BXPC-3, concentration not given here
[13] = target: T1, NAD-dependent protein deacylase sirtuin-6; assay: Competitive inhibition of human recombinant SIRT6 deacetylase activity using Arg-His-Lys-Lys(AC)-AMC as a substrate at 50 uM by double-reciprocal plot analysis
[14] = target: T1, NAD-dependent protein deacylase sirtuin-6; assay: Inhibition of human SIRT6 in BRCA2-deficient Capan1 cells assessed as potentiation of olaparib-induced DNA damage by measuring gammaH2AX levels at 100 uM after 24 hrs by confocal microscopy; type: cell-based; conditions: CAPAN-1
[15] = target: T1, NAD-dependent protein deacylase sirtuin-6; assay: Inhibition of SIRT6 in human BxPC-3 cells assessed as increase in radiolabelled glucose uptake at 100 uM after 18 hrs by fluorescence plate reader relative to control; type: cell-based
[16] = target: Protein Sirt6 (Rattus norvegicus) (UniProt A6K863); assay: Inhibition of SIRT6 in rat L6 cells assessed as increase in 2-NBDG uptake at 100 uM after 18 hrs by fluorescence plate reader relative to control; type: cell-based
Homo sapiens [17] = species: Homo sapiens; assay: Selectivity ratio of IC50 for human SIRT1 to IC50 for human SIRT6
[18] = target: T1, NAD-dependent protein deacylase sirtuin-6; assay: Inhibition of SIRT6 in human PBMC assessed as inhibition of MLR-induced TNF alpha production at 200 uM after 3 days by ELISA
[19] = target: T1, NAD-dependent protein deacylase sirtuin-6; assay: Inhibition of human SIRT6 in BRCA2-deficient Capan1 cells assessed as potentiation of olaparib-induced DNA damage by measuring cell viability at 100 uM after 7 days by CellTiter96 Aqueous1 assay; type: cell-based; conditions: CAPAN-1
Homo sapiens [20] = species: Homo sapiens; assay: Selectivity ratio of IC50 for human SIRT2 to IC50 for human SIRT6
[21] = target: T1, NAD-dependent protein deacylase sirtuin-6; assay: Inhibition of SIRT6 in human PBMC assessed as inhibition of PHA-induced TNF alpha production at 200 uM after 3 days by ELISA
[22] = target: T1, NAD-dependent protein deacylase sirtuin-6; assay: Inhibition of human SIRT6 in BRCA2-deficient Capan1 cells assessed as potentiation of olaparib-induced DNA damage by measuring gammaH2AX levels at 100 uM after 24 hrs by flow cytometry analysis; type: cell-based; conditions: CAPAN-1
[23] = target: T1, NAD-dependent protein deacylase sirtuin-6; assay: Inhibition of SIRT6 in human BxPC3 cells assessed as potentiation of gemcitabine-induced cytotoxicity by measuring cell viability at 30 uM by CellTiter96 Aqueous1 assay; type: cell-based; conditions: BXPC-3
[24] = target: T1, NAD-dependent protein deacylase sirtuin-6; assay: Inhibition of SIRT6 in human PBMC assessed as inhibition of MLR-induced TNF alpha production at 100 uM after 3 days by ELISA
[25] = target: T1, NAD-dependent protein deacylase sirtuin-6; assay: Inhibition of SIRT6 in human PBMC assessed as inhibition of PHA-induced TNF alpha production at 100 uM after 3 days by ELISA
[26] = target: T2, NAD-dependent protein deacetylase sirtuin-2 (Homo sapiens, UniProt Q8IXJ6); assay: Inhibition of human SIRT2 deacetylase activity using Arg-His-Lys-Lys(AC)-AMC as a substrate by fluorescence assay
T2 sequence (Q8IXJ6 whole entry): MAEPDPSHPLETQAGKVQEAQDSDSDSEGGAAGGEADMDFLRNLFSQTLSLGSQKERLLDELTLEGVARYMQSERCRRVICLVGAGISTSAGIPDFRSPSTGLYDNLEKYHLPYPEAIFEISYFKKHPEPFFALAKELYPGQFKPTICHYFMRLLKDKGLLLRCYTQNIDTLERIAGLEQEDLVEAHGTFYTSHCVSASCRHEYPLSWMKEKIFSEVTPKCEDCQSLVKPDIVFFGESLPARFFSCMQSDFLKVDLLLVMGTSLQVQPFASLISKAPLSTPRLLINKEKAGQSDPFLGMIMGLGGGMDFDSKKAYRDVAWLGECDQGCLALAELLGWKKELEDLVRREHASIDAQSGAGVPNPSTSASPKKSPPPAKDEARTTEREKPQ

[27] = target: T3, NAD-dependent protein deacetylase sirtuin-1 (Homo sapiens, UniProt Q96EB6); assay: Inhibition of human SIRT1 deacetylase activity using Arg-His-Lys-Lys(AC)-AMC as a substrate by fluorescence assay
T3 sequence (Q96EB6 whole entry): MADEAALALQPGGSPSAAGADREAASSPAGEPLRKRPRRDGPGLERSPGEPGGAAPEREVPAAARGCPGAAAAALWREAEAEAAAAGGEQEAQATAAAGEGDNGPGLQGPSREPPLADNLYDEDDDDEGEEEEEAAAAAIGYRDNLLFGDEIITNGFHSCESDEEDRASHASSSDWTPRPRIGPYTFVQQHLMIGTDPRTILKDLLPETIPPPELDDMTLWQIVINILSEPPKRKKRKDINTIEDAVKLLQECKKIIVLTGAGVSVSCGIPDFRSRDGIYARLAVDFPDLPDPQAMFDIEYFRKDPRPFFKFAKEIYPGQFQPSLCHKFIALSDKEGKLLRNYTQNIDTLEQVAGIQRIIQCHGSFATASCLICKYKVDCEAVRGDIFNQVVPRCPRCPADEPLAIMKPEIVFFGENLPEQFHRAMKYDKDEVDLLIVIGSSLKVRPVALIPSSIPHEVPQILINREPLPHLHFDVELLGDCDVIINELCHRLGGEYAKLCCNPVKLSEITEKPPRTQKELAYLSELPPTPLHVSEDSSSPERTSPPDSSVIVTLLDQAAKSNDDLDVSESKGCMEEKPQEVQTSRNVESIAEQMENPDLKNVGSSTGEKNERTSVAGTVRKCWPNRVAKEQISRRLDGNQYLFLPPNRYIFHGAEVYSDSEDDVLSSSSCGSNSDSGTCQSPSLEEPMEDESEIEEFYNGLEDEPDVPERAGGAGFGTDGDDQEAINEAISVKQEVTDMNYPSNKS

[28] = Cytotoxicity against human BxPC3 cells assessed as cell viability at 30 uM after 72 hrs by CellTiter96 Aqueous1 assay; type: cell-based, BXPC-3; conditions: for Activity: bxpc-3, 72 h, 30 µM

IC50 [1]: 82 µM
SMILES: Cn1ccc2cc(NS(=O)(=O)c3ccc4[nH]c(=O)[nH]c(=O)c4c3)ccc21

IC50 [1]: 137 µM
IC50 [2]: 137 µM
SMILES: O=c1[nH]c(=O)c2cc(S(=O)(=O)Nc3ccccc3-c3ccccc3)ccc2[nH]1

IC50 [1]: 242 µM
IC50 [2]: 297 µM
SMILES: CC(=O)Nc1ccc(S(=O)(=O)Nc2ccc(Oc3cccnc3)cc2)cc1

SMILES: O=C(c1cc(Cc2n[nH]c(=O)c3ccccc23)ccc1F)N1CCN(C(=O)C2CC2)CC1
Activity (CAPAN-1 [3]): Active
Activity (CAPAN-1 [4]): Active

IC50 [1]: 300 µM
SMILES: O=S(=O)(Nc1ccc(Oc2cccnc2)cc1)c1ccccc1

IC50 [1]: 2870 µM
SMILES: O=c1[nH]c(=O)c2cc(S(=O)(=O)NCc3cccc(Cn4ccnc4)c3)ccc2[nH]1

inhibition [5]: Active
IC50 [1]: 136 µM
fold increase in H3K9 acetylation [9]: 2.2 fold
fold increase in glucose uptake [10]: 2 fold
inhibition [12]: 73%
inhibition [13]: Active
fold increase in glucose uptake [15]: 1.3 fold
fold increase in 2-NBDG uptake [16]: 2.4 fold
Ratio IC50 (Homo sapiens [17]): 2.96
inhibition [18]: 47%
Ratio IC50 (Homo sapiens [20]): 1.07
inhibition [21]: 52%
SMILES: O=c1[nH]c(=O)c2cc(S(=O)(=O)Nc3ccc(Oc4cccnc4)cc3)ccc2[nH]1
Activity [6]: Active
Activity (CAPAN-1 [7]): Active
Activity (CAPAN-1 [8]): Active
viability [11]: > 50%
Activity [14]: Active
Activity [19]: Active
Activity [22]: Active

inhibition [24]: 21%
inhibition [25]: 31%
fold increase in H3K9 acetylation [9]: 1.5 fold
IC50 [26]: 159 µM
fold increase in glucose uptake [10]: 0.8 fold
inhibition [12]: 25%
IC50 [27]: 238 µM
IC50 [2]: 60 µM
fold increase in glucose uptake [15]: 0.6 fold
fold increase in 2-NBDG uptake [16]: 0.7 fold
Ratio IC50 (Homo sapiens [17]): 3.97
Ratio IC50 (Homo sapiens [20]): 2.65
SMILES: O=c1[nH]c(=O)c2cc(S(=O)(=O)Nc3ccc(Cn4ccnc4)cc3)ccc2[nH]1
Activity [23]: Active
Activity [6]: Active
viability [11]: > 80%
Activity [28]: Non-toxic

inhibition [5]: Active
IC50 [1]: 38 µM
fold increase in H3K9 acetylation [9]: 1.6 fold
IC50 [26]: 242 µM
fold increase in glucose uptake [10]: 4 fold
IC50 [27]: 6520 µM
inhibition [13]: Active
IC50 [2]: 49 µM
fold increase in glucose uptake [15]: 1.9 fold
fold increase in 2-NBDG uptake [16]: 3.1 fold
Ratio IC50 (Homo sapiens [17]): 133
Ratio IC50 (Homo sapiens [20]): 4.94
SMILES: Cn1c(=O)c2cc(S(=O)(=O)Nc3ccc(Cc4ccncc4)cc3)ccc2n(C)c1=O
viability at 72 h, 30 µM ([28]; BxPC3 cells, read-out: Activity): 75%

IC50 [1]: 102 µM
IC50 [2]: 77 µM
SMILES: Cn1c(=O)sc2cc(S(=O)(=O)Nc3ccc(Oc4cccnc4)cc3)ccc21

IC50 [1]: 275 µM
IC50 [2]: 270 µM
SMILES: O=C1CCc2cc(S(=O)(=O)Nc3ccc(Oc4cccnc4)cc3)ccc2N1

inhibition [5]: Active
IC50 [1]: 55 µM
inhibition [24]: 27%
inhibition [25]: 44%
fold increase in H3K9 acetylation [9]: 1.4 fold
IC50 [26]: 85 µM
fold increase in glucose uptake [10]: 2.8 fold
inhibition [12]: 72%
IC50 [27]: 424 µM
inhibition [13]: Active
IC50 [2]: 37 µM
fold increase in glucose uptake [15]: 1.2 fold
fold increase in 2-NBDG uptake [16]: 1 fold
Ratio IC50 (Homo sapiens [17]): 11.5
Ratio IC50 (Homo sapiens [20]): 2.3
SMILES: O=c1[nH]c(=O)c2cc(S(=O)(=O)Nc3cccc(CCc4ccncc4)c3)ccc2[nH]1
Activity [23]: Active
Activity [6]: Active
viability [11]: > 80%
Activity [19]: Active
Activity [28]: Non-toxic

IC50 [1]: 517 µM
SMILES: O=c1[nH]c(=O)c2cc(S(=O)(=O)NC3CCN(Cc4ccccc4)C3)ccc2[nH]1 (centres undefined)

IC50 [2]: 441 µM
SMILES: O=C1CCCN1c1ccc(S(=O)(=O)Nc2ccc(Oc3cccnc3)cc2)cc1

IC50 [1]: 127 µM
SMILES: O=c1[nH]c(=O)c2cc(S(=O)(=O)Nc3ccc(Oc4ccccc4)cc3)ccc2[nH]1
